≈ marks a conversion by molar mass, not a printed value. Like-named read-outs stand apart in the source and are kept apart here.
Key:
[1] = test system: Agrobacterium biosensor cells; assay: Minimal inhibitory concentration (MIC); type: cell-based, Agrobacterium tumefaciens; conditions: 10^5 CFU/ml, 36 h at 30°C
Experimental: (§1) Aside from the effect of QSI on QS regulation, the toxicity of these compounds was tested on bacterial cells by measuring two parameters: the minimal inhibitory concentration (MIC) and minimal bactericidal concentration (MBC). MIC, which is the lowest concentration of QSI (µg/ml) inhibiting any visible culture after 36 h of incubation at 30°C, was estimated by culturing 10^5 CFU/ml of the Agrobacterium biosensor cells in the presence of different concentrations of the QSI. MBC, which is the lowest concentration of QSI (µg/ml) that results in a 99.9% reduction of the initial bacterial population (10^5 CFU/ml) after 36 h of incubation at 30°C in the presence of different concentrations of QSI, was estimated by plating 100 µL of the Agrobacterium cultures on agar LBm plates. After an incubation of 48 h at 30°C, CFU were counted and the MBC values were calculated.

[2] = test system: Agrobacterium biosensor cells; assay: Minimal bactericidal concentration (MBC); type: cell-based, Agrobacterium tumefaciens; conditions: Agrobacterium; 99.9% reduction of 10^5 CFU/ml after 36 h at 30°C; read-out: MBC
Experimental: as §1

[3] = test system: A. tumefaciens NT1(pZLR4) traG-lacZ reporter fusion; assay: QSI activity on A. tumefaciens AHL-bioindicator (traG-lacZ β-galactosidase); type: cell-based, Agrobacterium tumefaciens; conditions: for inhibition at 100 µg/mL: Agrobacterium tumefaciens, read-out: inhibition (%) at 100 µg/ml; for QSI hit in library screening: second screening: compounds at 5 µg/ml, C8-HSL 10 nM, A. tumefaciens biosensor
Experimental: Two bacterial QS-signal biosensors were used. Chromobacterium violaceum CV026 [41] was grown in Luria-Bertani modified (LBm) medium, in which the NaCl concentration was 5 g/l instead of 10 g/l. Agrobacterium tumefaciens NT1(pZLR4) was grown in AB minimal medium supplemented with mannitol (0.2%). After supplementation with appropriate AHL, each of the QS-biosensors expresses a reporting activity, which is the production of the pigment violacein in C. violaceum CV026 and that of β-galactosidase from the transcriptional fusion traG::lacZ in A. tumefaciens NT1(pZLR4).
When the screening was performed, the chemical library of the Institut de Chimie des Substances Naturelles (ICSN, Gif-sur-Yvette, France) contained more than 3500 synthetic and natural compounds, which were individually dissolved in dimethylsulfoxide (DMSO) at 1mg/ml and stored in 96 microwell plates. A first screening was performed by mixing biosensor CV026 with the AHL hexanoylhomoserine lactone (C6-HSL) at 0.5 µM and the tested compounds at 50 µg/ml. Final volume was adjusted to 100 µl with a synthetic medium (10% LBm and 0.4% sucrose). After 24 hours of incubation at 30°C, the presence or absence of violacein pigment was quoted by visual reading. […] Final volume was adjusted to 100 µl by the addition of AB minimal medium supplemented with mannitol (0.2%) and TY medium (10%). After 4 hours of incubation at 30°C, β-galactosidase activity was measured in A. tumefaciens cultures as previously described. In the two screenings, 4-nitropyridine-N-oxide (4-NPO) was used as a QSI reference. […]

[4] = test system: QS-regulated Ti-plasmid transfer in A. tumefaciens; assay: QS-regulated Ti-plasmid transfer (conjugation) assay; type: cell-based, Agrobacterium tumefaciens; conditions: QSI at 0.1 mg/ml, OC8-HSL 500 pM, 72 h at 24°C
Experimental: Figure 4 In vitro Ti plasmid transfer frequency in Agrobacterium. The Ti plasmid transfer frequencies were measured in the presence of QSI (A) and the four 1248-diastereoisomeres (B) at 0.1 mg/ml. Histograms represent the cell density of transconjugants (CFU/ml), while black diamonds and squares, those of the donor and recipient strains, respectively. Measurements were performed in quadruplicate and the experiment was repeated twice. The cell densities of transconjugants in the presence of QSI were compared to that of the control in the presence of DMSO with a Mann and Whitney test (α = 0.05). Statistically different values are noted by asterisks.
In A. tumefaciens, the transfer of the Ti-plasmid from a donor cell to a recipient one is controlled by QS. QSI were evaluated for their capacity to reduce plasmid transfer frequency in Agrobacterium. In the plasmid transfer assay, two modified Agrobacterium strains were used: a Ti-plasmid donor, which requires exogenous AHL to transfer a kanamycin-resistant (Km^r) Ti-plasmid, and a rifampicin-resistant (Rif^r) recipient strain, which is free of Ti-plasmid. Overnight cultures of the donor and recipient strains were mixed with 500 pM of oxo-octanoylhomoserine lactone (OC8-HSL) and 0.1 mg/ml of QSI in LBm medium. Each combination was repeated 4 times in microwell plates.

[5] = test system: P. aeruginosa; assay: Growth kinetics of P. aeruginosa in the presence of QSIs; type: cell-based, Pseudomonas aeruginosa; conditions: QSI at 0.5 mg/ml, OD600 and CFU at 8 and 18 hour
Experimental: (§2) Figure 5 QSIs modulated QS-signal accumulation in P. aeruginosa. Growth kinetics (n = 6) of P. aeruginosa was measured (OD600) in the presence of the QSIs (estradiol, estrone, estriol, hordenine and 4-NPO) at 0.5 mg/ml using DMSO as a negative control. Cell counts were assessed (CFU/ml) at 8- and 18-hour, and C4-HSL and OC12-HSL concentration (µM) were determined in the bacterial cultures at 18-hour. Statistically different values (Student's t test with α = 0.01) are noted by asterisks.
(§3) QS gene transcription in P. aeruginosa PAO1 was monitored using PAO1 strains carrying various gene promoters fused to a lacZ reporter gene, as described in Vandeputte et al., 2010 and Table 1. PAO1 reporter strains were prepared according to Vandeputte et al.. Briefly, 18-hours-old liquid cultures (50 µl) were diluted in order to obtain a starting OD600 nm comprised between 0.02 and 0.03 in fresh LB medium supplemented with 50 mM MOPS pH 7.0 (1 ml), carbenicillin (300 µg/ml) and 10 µl of the QSIs to be tested (OD were measured using a SpectraMax M2 device from Molecular Devices). Test and control QSIs were diluted in 100% DMSO (resulting after addition to the growth medium in a 1% final concentration of DMSO). Cultures were incubated for 18 hours at 37°C with agitation. After incubation, cell densities were assessed spectrophotometrically (OD600 nm) and β-galactosidase assays were performed using the substrate o-nitrophenyl-β-D-galactopyranoside as described previously, [29]. Promoterless-lacZ fusions were used as controls. AHLs were quantified as described in Vandeputte et al.. All tests were performed in quintuplicates and three biological repetitions. The statistical significance of each test was evaluated by conducting Student's t tests and two-way ANOVA combined with the Tukey post-analysis test using the GraphPad Prism software and p values≤0.01 were considered significant.

[6] = test system: QS-signal accumulation in P. aeruginosa; assay: AHL (C4-HSL, OC12-HSL) quantification in P. aeruginosa cultures by mass spectrometry; type: cell-based, Pseudomonas aeruginosa; conditions: QSI at 0.5 mg/ml, 18-hour
Experimental: as §2, §3

C[C@@H](NC[C@H]1Cc2ccccc2N1)c1cccc2ccccc12 [(R,R)-1248, (R)-N-((R)-indolin-2-ylmethyl)-1-(naphthalen-1-yl)ethanamine]
MIC ([1]; Agrobacterium, read-out: MIC): 100 µg/mL (≈ 331 µM)
MBC [2]: 100 µg/mL (≈ 331 µM)
inhibition at 100 µg/mL [3]: 10%

C[C@H](NC[C@H]1Cc2ccccc2N1)c1cccc2ccccc12 [(R,S)-1248, (S)-N-((R)-indolin-2-ylmethyl)-1-(naphthalen-1-yl)ethanamine]
MIC ([1]; Agrobacterium, read-out: MIC): 100 µg/mL (≈ 331 µM)
MBC [2]: 100 µg/mL (≈ 331 µM)
inhibition at 100 µg/mL [3]: 0%

C[C@@H](NC[C@@H]1Cc2ccccc2N1)c1cccc2ccccc12 [(S,R)-1248, (R)-N-((S)-indolin-2-ylmethyl)-1-(naphthalen-1-yl)ethanamine]
MIC ([1]; Agrobacterium, read-out: MIC): 100 µg/mL (≈ 331 µM)
MBC [2]: 100 µg/mL (≈ 331 µM)

C[C@H](NC[C@@H]1Cc2ccccc2N1)c1cccc2ccccc12 [(S,S)-1248, (S)-N-((S)-indolin-2-ylmethyl)-1-(naphthalen-1-yl)ethanamine]
MIC ([1]; Agrobacterium, read-out: MIC): 100 µg/mL (≈ 331 µM)
MBC [2]: > 100 µg/mL

O=[N+]([O-])c1cc[n+]([O-])cc1 [Compound 4-NPO, 4-nitropyridine-N-oxide, reference compound]
MIC ([1]; Agrobacterium, read-out: MIC): 25 µg/mL (≈ 178 µM)
decrease of plasmid transfer efficiency [4]: 10 fold
MBC [2]: > 100 µg/mL
effect on growth of P. aeruginosa [5]: slightly delayed the growth
C4-HSL concentration in cell cultures [6]: reduction
OC12-HSL concentration in cell cultures [6]: reduction

CCC12CCCN3CCC4(C(=C(C(=O)OC)C1)Nc1ccccc14)C32 (stereo not drawn) [Compound 14]
MIC ([1]; Agrobacterium, read-out: MIC): > 100 µg/mL
MBC [2]: > 100 µg/mL
inhibition at 100 µg/mL [3]: 0%
QSI hit in library screening [3]: hits

CC1C2CCC3C4CC=C5CC(N)CCC5(C)C4CCC32CN1C.Cl (stereo not drawn) [Compound 283, 2,3,11a-Trimethyl-2,3,3a,4,5,5a,5b,6,8,9,10,11,11a,11b,12,13-hexadecahydro-1H-2-aza-pentaleno[1,6a-a]phenanthren-9-ylamine hydrochloride]
MIC ([1]; Agrobacterium, read-out: MIC): > 100 µg/mL
MBC [2]: > 100 µg/mL
QSI hit in library screening [3]: hits

C=C[C@H]1CN2CC[C@H]1C[C@H]2[C@H](O)c1ccnc2ccc(OC)cc12 [Compound 937]
MIC ([1]; Agrobacterium, read-out: MIC): > 100 µg/mL
MBC [2]: > 100 µg/mL
inhibition at 100 µg/mL [3]: 15%
QSI hit in library screening [3]: hits

CC(C)CCC[C@@H](C)[C@H]1CCC2C3CC=C4C[C@@H](Cl)CC[C@]4(C)C3CC[C@@]21C (stereo partly drawn) [Compound 1099]
MIC ([1]; Agrobacterium, read-out: MIC): 100 µg/mL (≈ 247 µM)
effect on Ti plasmid transfer frequency (words) [4]: significantly reduce the plasmid transfer frequency by one order of magnitude
MBC [2]: > 100 µg/mL
QSI hit in library screening [3]: hits

COc1nc([N+](=O)[O-])nn1[C@H]1C[C@H](O)[C@@H](CO)O1 [Compound 1102]
MIC ([1]; Agrobacterium, read-out: MIC): > 100 µg/mL
effect on Ti plasmid transfer frequency (words) [4]: significantly reduce the plasmid transfer frequency by one order of magnitude
MBC [2]: > 100 µg/mL
inhibition at 100 µg/mL [3]: 0%
QSI hit in library screening [3]: hits

CC(NCC1Cc2ccccc2N1)c1cccc2ccccc12 (stereo not drawn) [Compound 1248]
MIC ([1]; Agrobacterium, read-out: MIC): > 100 µg/mL
MBC [2]: > 100 µg/mL
QSI hit in library screening [3]: hits

Cc1ccc(S(=O)(=O)CCC(=O)c2ccccc2)cc1 [Compound 1577]
MIC ([1]; Agrobacterium, read-out: MIC): 3 µg/mL (≈ 10.4 µM)
effect on Ti plasmid transfer frequency (words) [4]: significantly reduce the plasmid transfer frequency by one order of magnitude
MBC [2]: 25 µg/mL (≈ 86.7 µM)
QSI hit in library screening [3]: hits

CC(C)CCC[C@@H](C)[C@H]1CCC2C3CCC4CC(=O)CC[C@]4(C)C3CC[C@@]21C (stereo partly drawn) [Compound 1868]
MIC [1]: 12,5 µg/ml
MIC ([1]; Agrobacterium, read-out: MIC): 12.5 µg/mL (≈ 32.3 µM)
MBC [2]: > 100 µg/mL
inhibition at 100 µg/mL [3]: 34%
QSI hit in library screening [3]: hits

Cc1cn(COCCSc2ccccc2)c(=O)[nH]c1=O [Compound 1949, 5-Methyl-1-(2-phenylsulfanyl-ethoxymethyl)-1H-pyrimidine-2,4-dione]
MIC ([1]; Agrobacterium, read-out: MIC): > 100 µg/mL
MBC [2]: > 100 µg/mL
inhibition at 100 µg/mL [3]: 38%
QSI hit in library screening [3]: hits

CN1CCc2c([nH]c3ccccc23)C1 [Compound 3492]
MIC ([1]; Agrobacterium, read-out: MIC): > 100 µg/mL
MBC [2]: > 100 µg/mL
QSI hit in library screening [3]: hits

CC/C=C\C[C@H]1C(=O)CC[C@@H]1CC(=O)O [Jasmonic acid, jasmonic acid, reference compound]
MIC ([1]; Agrobacterium, read-out: MIC): > 100 µg/mL
MBC [2]: > 100 µg/mL

Reference: publication PMC3871529, “At a Supra-Physiological Concentration, Human Sexual Hormones Act as Quorum-Sensing Inhibitors” (PLoS ONE, 2013)
